Source: patent US10668174B2, “Organ protection in PSMA-targeted radionuclide therapy of prostate cancer” (Molecular Insight Pharmaceuticals, Inc., priority 2014, dated 2020)
Where two headings read alike, the source gives them in different places. Each block holds one molecule with its values, some of them ahead of it.

Key:
[1] = doses of up to 750 mg (~10 mg/kg), 25 healthy subjects, mean body weight 71 kg; cited from earlier work
PSMA = conditions: simultaneous coinjection of 50 mg/kg PMPA; cited from earlier work
LNCaP tumor = assay: Example 3: 68Ga-MIP-1558 animal PET, PMPA after 1 hour baseline scan; type: in vivo, BALB/c nude mice; conditions: for kidney uptake SUVmax of 68Ga-MIP1558: PMPA 50 mg/kg; for mean tumor uptake SUVmax of 68Ga-MIP1558: after PMPA 50 mg/kg
Procedure: (§1) MIP-1558 was evaluated after labeling with ^68Ga and imaging in an animal PET. […] Both tumor and kidney uptake was determined in a volume of interest (VOI).

[2] = Example 3: serial 68Ga-MIP-1558 PET of the salivary region with saline or PMPA; type: in vivo; conditions: rats, PMPA 10 mg/kg
Procedure: as §1

LNCaP tumors = assay: Example 1: planar scintigraphy of 125I-MIP-1095, PMPA injected 16 hours later; type: in vivo, BALB/c nude mice
Procedure: Mice bearing LNCaP tumors of 1.5 cm diameter were injected via the tail vein with 37 MBq of ^125I-MIP-1095 in 100 μl at a specific activity of >1,000 mCi/[…]. Mice were imaged at a baseline time of 16 hours post injection giving enough time for tracer clearance from the blood stream and kidney calices.

[3] = PET-based dosimetry; cited from earlier work
[4] = group 2, PMPA 0.5 mg/kg IV 16 hours post tracer
[5] = groups 3, 4 and 5, 0.05, 0.15 and 0.5 mg/kg

Procedure for LNCaP xenografts: Blood and tissues were collected 18 hours after intravenous injection of ^125I-MIP-1095 (2 hours after displacing agent injections). Gamma-counter readouts were obtained for each sample and expressed as percent injected dose per gram of tissue using gamma-counter readout of the dosing solution as a reference.
The dosing solution was prepared fresh the day of administration.
Cold MIP-1095 was stored protected from light at −80° C. until use. The compound was formulated in a vehicle of sterile saline. For dosing of the 0.50 mg/kg group, the cold MIP-1095 was placed into a sterile vial and the appropriate amount of saline was added and mixed well by vortexing to form a clear solution with a pH value of 6.96. Dosing solutions for the 0.15 mg/kg and 0.05 mg/kg groups were prepared by direct (not serial) dilution of the dosing solution from the 0.5 mg/kg group with complete vehicle. The dosing solutions were prepared fresh the day of administration.
For dosing, the stock solution (colorless) was thawed in a 37° C. water bath and diluted 1:1 with sterile saline for a fixed 0.1 mCi/ml solution for dosing.
The pre-implantation cell viability was 97%. […] The cell suspension was maintained on wet ice during implantation. Following implantation, an aliquot of the remaining cells was diluted with a trypan blue solution and counted to determine the post-implantation cell viability (96%).
Test animals were implanted subcutaneously, high in the axilla (just under the fore limb) on Day 0 with 5.0E+06 cells in 0.2 ml of 50% serum-free medium:50% Matrigel® using a 27-gauge needle and syringe.
All mice were sorted into study groups based on caliper measurement estimation of tumor burden. The mice were distributed to ensure that the mean tumor burden for all groups was within 10% of the overall mean tumor burden for the study population. Treatment began on Day 25. Mice were administered test agent via intravenous injections. The mice were administered a fixed volume injection of 100 μl (approximately 4 ml/kg) via the tail vein, using a 28-gauge needle and insulin syringe. A fresh needle and syringe was used for each mouse.
Group 1—^125I-MIP-1095+Saline, 0.4 mCi/kg (0.005 mg/kg)+100 μl fixed volume, IV+IV, “Control”; test article at 0 hours, saline 16 hours post test article.

Structure (SMILES): O=C(O)CCC(CCCS)C(=O)O (stereo not drawn) [2-MPPA, 2-(3-mercaptopropyl)pentanedioic acid]
safety and tolerability [1]: safe and generally well tolerated

Structure (SMILES): O=C(O)CCC(CP(=O)(O)O)C(=O)O (stereo not drawn) [PMPA, 2-(phosphonomethyl)pentanedioic acid]
residual kidney uptake of MIP-1404, % of baseline (PMPA 1 mg/kg, 2 hours): 13%
residual kidney uptake of MIP-1404, % of baseline (PMPA 1 mg/kg, 4 hours): 9%
residual kidney uptake of MIP-1404, % of baseline (PMPA 10 mg/kg, 2 hours): 15%
residual kidney uptake of MIP-1404, % of baseline (PMPA 10 mg/kg, 4 hours): 10%
residual kidney uptake of MIP-1404, % of baseline (PMPA 50 mg/kg, 2 hours): 11%
residual kidney uptake of MIP-1404, % of baseline (PMPA 50 mg/kg, 4 hours): 7%
blocking of radiolabeled MIP-1095 binding sites in tumor and kidneys (PSMA): complete blocking
kidney uptake SUVmax of 68Ga-MIP1558 (LNCaP tumor; 2 hours post injection): 1.87
kidney uptake SUVmax of 68Ga-MIP1558 (LNCaP tumor; 3 hours post injection): 1.77
mean tumor uptake SUVmax of 68Ga-MIP1558 (LNCaP tumor; 2 hours post injection): 0.40
mean tumor uptake SUVmax of 68Ga-MIP1558 (LNCaP tumor; 3 hours post injection): 0.39
exposure of 125I-MIP-1095 in LNCaP tumors and all other organs and tissues (LNCaP xenografts; [4]): little changed
exposure of 125I-MIP-1095 in the kidneys (LNCaP xenografts; [4]): greatly reduced
change of salivary region uptake due to the PMPA intervention [2]: there does not appear to be a measurable change
salivary region SUVmax of 68Ga-MIP-1558, mean ([2]; 1 hour post injection): 0.82
salivary region SUVmax of 68Ga-MIP-1558, mean ([2]; 3 hours post injection): 0.23
residual tumor uptake of 125I-MIP-1095, % of 16 hour baseline (LNCaP tumors; 2 hours after PMPA 0.2 mg/kg): 98%
residual tumor uptake of 125I-MIP-1095, % of 16 hour baseline (LNCaP tumors; 2 hours after PMPA 1 mg/kg): 93%
residual tumor uptake of 125I-MIP-1095, % of 16 hour baseline (LNCaP tumors; 2 hours after PMPA 10 mg/kg): 77%
residual tumor uptake of 125I-MIP-1095, % of 16 hour baseline (LNCaP tumors; 2 hours after PMPA 50 mg/kg): 75%
decrease in tumor uptake (LNCaP tumors; PMPA 0.2 mg/kg): < 5%
renal displacement of tracer (LNCaP tumors; PMPA 0.2 mg/kg (lower dose)): only sub-totally displaced
displacement of 125I-MIP-1095 from the kidneys (LNCaP tumors; PMPA 0.2 mg/kg, 16 hours after tracer): high significant (p<0.01) displacement
effect on tumor uptake (LNCaP tumors; PMPA 1.0 mg/kg): < 10%
renal displacement of tracer (LNCaP tumors; PMPA 1.0 mg/kg): near total renal displacement
kidney washout of 125I-MIP-1095 vs 0.2 mg/kg dose (LNCaP tumors; PMPA 1 mg/kg, p<0.01): even higher kidney washout
displacement of renal activity of 125I-MIP-1095 (LNCaP tumors; PMPA 16 hours after MIP-1095, all PMPA doses (0.2-50 mg/kg)): rapid and quantitative relevant displacement
kidney-protective effect vs 1 mg/kg (LNCaP tumors; PMPA doses greater than 1 mg/kg (10, 50 mg/kg)): did not improve the kidney-protective effect
difference in MIP-1404 tumor uptake vs controls (LNCaP; PMPA 50 mg/kg): not significant
washout of MIP-1404 from kidney vs controls (LNCaP; PMPA 50 mg/kg after baseline scan, at 2 and 4 hours): significantly (p<0.01) enhanced

Structure (SMILES): O=C(O)CC[C@H](NC(=O)N[C@@H](CCCCNC(=O)Nc1ccc(I)cc1)C(=O)O)C(=O)O [cold MIP-1095]
exposure in other organs (LNCaP xenografts; group 4 (0.15 mg/kg)): little changed
reduction of LNCaP tumors exposure compared to negative control (LNCaP xenografts; group 4 (0.15 mg/kg)): 1.2 fold
reduction of kidney exposure compared to negative control (LNCaP xenografts; group 4 (0.15 mg/kg)): 5 fold
125I-MIP-1095 kidney exposure (LNCaP xenografts; [5]): dose-dependently reduced
LNCaP tumors exposure (LNCaP xenografts; [5]): dose-dependent decrease
liver, stomach, large and small intestines exposure (LNCaP xenografts; [5]): dose-dependent increase
reduction in kidney exposure compared with positive control (LNCaP xenografts; highest dose (0.5 mg/kg)): equivalent to the one observed for positive control

exposure in all other tissues and organs (including salivary glands) (LNCaP xenografts; male, Taconic Nude (CrTac:NCr-Foxn1nu), mouse, in vivo, 18 h): less than 1 % of ID/g
exposure in LNCaP tumors relative to other tissues (LNCaP xenografts; mouse, in vivo, iv): highest exposure
Structure (SMILES): O=C(O)CC[C@H](NC(=O)N[C@@H](CCCCNC(=O)Nc1ccc([123I])cc1)C(=O)O)C(=O)O [125I-MIP-1095]

Structure (SMILES): O=C(O)CC[C@H](NC(=O)N[C@@H](CCCCNC(=O)Nc1ccc([123I])cc1)C(=O)O)C(=O)O [124I-MIP1095]
off-target radiation dose, kidneys [3]: 1.4 mSv/MBq
off-target radiation dose, liver [3]: 1.7 mSv/MBq
off-target radiation dose, salivary glands [3]: 3.8 mSv/MBq
radiation dose, red marrow [3]: 0.37 mSv/MBq

washout from the kidneys without intervention (LNCaP; mouse, in vivo): fast washout
Structure (SMILES): O=C(O)CC[C@H](NC(=O)N[C@@H](CCC(=O)N[C@@H](CCCCN(Cc1nccn1CC(=O)N(CC(=O)O)CC(=O)O)Cc1nccn1CC(=O)N(CC(=O)O)CC(=O)O)C(=O)O)C(=O)O)C(=O)O [MIP-1404]
